Experimental data from ChEMBL document CHEMBL3525947, “Potential role of UGT1A4 promoter SNPs in anastrozole pharmacogenomics” (Drug Metab Dispos, 2013).

Columns and labels:
Format in all cases: ADME
Liver microsome [1] = test: Drug metabolism human liver microsomes treated with 100 uM anastrozole assessed as retention time by mass spectrometry analysis
Liver microsome [2] = test: Drug metabolism human liver microsomes treated with 100 uM lamotrigine assessed as retention time by mass spectrometry analysis
[3] = Drug metabolism in human liver microsomes assessed as UGT1A4 -163G>A(AA) variant-mediated compound glucuronidation at 100 uM by mass spectrometry analysis
[4] = Drug metabolism in human liver microsomes assessed as UGT1A4 142T>G (TG) mutant-mediated compound glucuronidation at 100 uM by mass spectrometry analysis
[5] = Drug metabolism in human liver microsomes assessed as UGT1A4 -219C>T(CT) mutant-mediated compound glucuronidation at 100 uM by mass spectrometry analysis
[6] = Drug metabolism in human liver microsomes assessed as UGT1A4 -219C>T(TT) mutant-mediated compound glucuronidation at 100 uM by mass spectrometry analysis
[7] = Drug metabolism in human liver microsomes assessed as UGT1A4 70C>A (CC) mutant-mediated compound glucuronidation at 100 uM by mass spectrometry analysis
[8] = Drug metabolism in human liver microsomes assessed as UGT1A4 -163G>A(GG) variant-mediated compound glucuronidation at 100 uM by mass spectrometry analysis
Liver microsome [9] = test: Drug metabolism in human liver microsomes assessed as retention time at 100 uM by mass spectrometry analysis
[10] = Drug metabolism in human liver microsomes assessed as UGT1A4 70C>A (AA) mutant-mediated compound glucuronidation at 100 uM by mass spectrometry analysis
[11] = Drug metabolism in human liver microsomes assessed as UGT1A4 -217T>G(TG) variant-mediated compound glucuronidation at 100 uM by mass spectrometry analysis
[12] = Drug metabolism in human liver microsomes assessed as UGT1A4 -163G>A(AG) mutant-mediated compound glucuronidation at 100 uM by mass spectrometry analysis
[13] = molecular target: T1, UDP-glucuronosyltransferase 1A4 (Homo sapiens, UniProt P22310); test: Drug metabolism assessed as hecogenin-mediated inhibition of human recombinant UGT1A4-catalyzed anastrozole glucuronidation after 90 mins
T1 sequence (P22310 whole entry): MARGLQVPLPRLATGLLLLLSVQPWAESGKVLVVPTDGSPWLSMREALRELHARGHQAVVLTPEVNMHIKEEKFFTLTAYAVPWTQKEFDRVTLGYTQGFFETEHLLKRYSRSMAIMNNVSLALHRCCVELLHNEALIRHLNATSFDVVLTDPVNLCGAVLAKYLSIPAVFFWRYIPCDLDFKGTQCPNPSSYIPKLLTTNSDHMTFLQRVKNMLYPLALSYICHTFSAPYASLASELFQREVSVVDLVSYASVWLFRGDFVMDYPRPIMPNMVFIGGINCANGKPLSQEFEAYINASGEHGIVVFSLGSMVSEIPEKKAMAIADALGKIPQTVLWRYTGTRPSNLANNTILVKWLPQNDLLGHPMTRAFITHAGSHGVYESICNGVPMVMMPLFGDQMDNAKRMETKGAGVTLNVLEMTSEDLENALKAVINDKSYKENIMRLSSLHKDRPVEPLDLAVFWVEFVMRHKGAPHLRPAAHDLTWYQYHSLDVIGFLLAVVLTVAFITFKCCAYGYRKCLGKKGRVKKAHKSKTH

[14] = Drug metabolism in human liver microsomes assessed as UGT1A4 70C>A (AC) mutant-mediated compound glucuronidation at 100 uM by mass spectrometry analysis
[15] = Drug metabolism in human liver microsomes assessed as UGT1A4 142T>G (TT) mutant-mediated compound glucuronidation at 100 uM by mass spectrometry analysis
[16] = Drug metabolism in human liver microsomes assessed as UGT1A4 -36G>A (AG) variant-mediated compound glucuronidation at 100 uM by mass spectrometry analysis
Liver microsome [17] = test: Drug metabolism in human liver microsomes assessed as glucuronide formation per mg protein by mass spectrometry analysis
[18] = Drug metabolism in human liver microsomes assessed as UGT1A4 -217T>G(GG) mutant-mediated compound glucuronidation at 100 uM by mass spectrometry analysis
[19] = Drug metabolism in human liver microsomes assessed as UGT1A4 -36G>A (AA) variant-mediated compound glucuronidation at 100 uM by mass spectrometry analysis
[20] = Drug metabolism in human liver microsomes assessed as UGT1A4 -219C>T(CC) mutant-mediated compound glucuronidation at 100 uM by mass spectrometry analysis
[21] = Drug metabolism in human liver microsomes assessed as UGT1A4 142T>G (GG) mutant-mediated compound glucuronidation at 100 uM by mass spectrometry analysis
[22] = Drug metabolism in human liver microsomes assessed as UGT1A4 -217T>G(TT) variant-mediated compound glucuronidation at 100 uM by mass spectrometry analysis
[23] = Drug metabolism in human liver microsomes assessed as UGT1A4 -36G>A (GG) mutant-mediated compound glucuronidation at 100 uM by mass spectrometry analysis
Liver microsome [24] = test: Drug metabolism in pooled human liver microsomes assessed as IC50 for hecogenin-mediated inhibition of anastrozole glucuronidation after 90 mins; conditions: 1.5 h

CC(C)(C#N)c1cc(Cn2c[n+]([C@@H]3O[C@H](C(=O)[O-])[C@@H](O)[C@H](O)[C@H]3O)cn2)cc(C(C)(C)C#N)c1
Retention_time (Liver microsome [1]): 2.86 min

Nc1nc(N)[n+]([C@@H]2O[C@H](C(=O)[O-])[C@@H](O)[C@H](O)[C@H]2O)nc1-c1cccc(Cl)c1Cl
Retention_time (Liver microsome [2]): 1.34 min

CC(C)(C#N)c1cc(Cn2cncn2)cc(C(C)(C)C#N)c1 [ANASTROZOLE]
Drug metabolism [3]: 0.8 pmol/min/µg | Drug metabolism [4]: 0.3 pmol/min/µg | Drug metabolism [5]: 0.9 pmol/min/µg | Drug metabolism [6]: 1 pmol/min/µg | Drug metabolism [7]: 0.4 pmol/min/µg | Drug metabolism [8]: 0.4 pmol/min/µg | Retention_time (Liver microsome [9]): 3.95 min | Drug metabolism [10]: 0.8 pmol/min/µg | Drug metabolism [11]: 1.5 pmol/min/µg | Drug metabolism [12]: 0.7 pmol/min/µg | IC50 [13]: 4.72 µM | Drug metabolism [14]: 0.3 pmol/min/µg | Drug metabolism [15]: 0.5 pmol/min/µg | Drug metabolism [16]: 1 pmol/min/µg | Drug metabolism (Liver microsome [17]): 0.023 pmol/min | Drug metabolism [18]: 1.9 pmol/min/µg | Drug metabolism [19]: 1.3 pmol/min/µg | Drug metabolism [20]: 0.4 pmol/min/µg | Drug metabolism [21]: 0.3 pmol/min/µg | Drug metabolism [22]: 0.3 pmol/min/µg | Drug metabolism [23]: 0.3 pmol/min/µg | IC50 (Liver microsome [24]): 15 µM

Nc1nnc(-c2cccc(Cl)c2Cl)c(N)n1 [LAMOTRIGINE]
Retention_time (Liver microsome [9]): 1.63 min | Drug metabolism (Liver microsome [17]): metabolite_detected
